Test results reported in paper PMC9696579 (Nature structural & molecular biology, 2022).
pIC50: −log10 of the molar value. Values belong to the compound of their own block, whether it stands above or below them. Where a SMILES comes first, the peptide text is derived from it. The star is where a group is joined. 5FAM = O=C1OC2(c3ccc(O)cc3Oc3cc(O)ccc32)c2ccc(C(=O)*)cc21; PEG3 = NCCOCCOCCOCCC(=O)O

Columns and labels:
human PKA-Cα = human PKA-Cα (Homo sapiens, UniProt P17612); assay: Fluorescence polarization, FAM-labeled SMO peptide binding to human PKA-Cα; settings: human or mouse PKA-Cα
SMO [1] = assay: Immunofluorescence of SMO and endogenous PKA-C in NIH3T3 cilia
SMO [2] = settings: inverse agonist; cited from earlier work
PKA-Cα [3] = assay: SMO / PKA-C colocalization in cilia of IMCD3 cells; type: cell-based; settings: WRR mutation, SAG21k 1 μM overnight
GLI = GLI transcriptional reporter assay in Smo−/− MEFs; type: cell-based, mouse; settings: ShhN conditioned medium, 2 days, n = three
PKA-Cα [4] = assay: BRET analysis of SMO / PKA-C interactions in IMCD3 cells; type: cell-based, mouse; settings: PKA-C expressed at near-endogenous levels, n = three
mouse PKA-Cα = mouse PKA-Cα (Mus musculus, UniProt P05132); assay: Surface plasmon resonance; settings: SPR
[5] = biological target: mouse PKA catalytic subunit (Cα) (Mus musculus, UniProt P05132); assay: In vitro PKA-C activity assay; type: biochemical; settings: read-out: IC50 for PKA-C activity; recombinant SMO pCT; apparent IC50; 15–30 nM Cα, 260 μM Kemptide, 100 μM ATP, 10 mM MgCl2, 100 mM MOPS pH 7; 3 min preincubation, room temperature; two independent experiments
PKA-Cα [6] = assay: BRET analysis of SMO / PKA-C interactions in HEK293 cells; type: cell-based, mouse; settings: nanoluc-tagged SMO657 with YFP-tagged PKA-Cα, mean, n = three
smo−/− zebrafish = assay: Slow muscle specification in smo−/− zebrafish embryos; type: in vivo, Danio rerio; settings: mRNA injection; Prox1 / Engrailed staining; <26 hours post-fertilization

Compound: CC[C@H](C)[C@H](NC(=O)[C@H](C)NC(=O)CNC(=O)[C@H](CCCNC(=N)N)NC(=O)[C@H](CCCNC(=N)N)NC(=O)[C@H](C)NC(=O)[C@@H](NC(=O)[C@H](CCSC)NC(=O)[C@H](CCCCN)NC(=O)[C@@H](NC(=O)[C@@H](NC(=O)[C@H](Cc1c[nH]cn1)NC(=O)[C@H](CCC(N)=O)NC(=O)[C@H](C)NC(=O)[C@H](Cc1c[nH]c2ccccc12)NC(=O)[C@H](C)NC(=O)[C@H](CO)NC(=O)[C@H](CO)NC(=O)[C@@H](NC(=O)[C@H](CC(=O)O)NC(=O)[C@H](C)NC(=O)[C@H](CO)NC(=O)CCOCCOCCOCCNC(=O)c1ccc2c(c1)C(=O)OC21c2ccc(O)cc2Oc2cc(O)ccc21)C(C)C)C(C)C)[C@@H](C)O)C(C)C)C(=O)N[C@@H](CC(C)C)C(=O)N1CCC[C@H]1C(=O)O ({5FAM-PEG3}-SADVSSAWAQHVTKMVARRGAILP-OH)
ATP dependence of interaction with PKA-Cα (human PKA-Cα): strongly ATP-dependent

Compound: CNC1CCC(N(Cc2cccc(-c3ccncc3)c2)C(=O)c2sc3ccccc3c2Cl)CC1 (stereo not shown) [SAG]
accumulation of SMO in cilia (SMO [1]; NIH3T3 stably expressing SMO-V5-TurboID, SAG 100 nM, anti-V5): dramatic accumulation of SMO in cilia

Compound: CC1=C2C[C@H]3[C@@H](CC=C4C[C@@H](O)CC[C@@]43C)[C@@H]2CC[C@]12O[C@@H]1C[C@H](C)CN[C@H]1[C@H]2C [cyclopamine]
effect on SMO (accumulation in cilia, conformation) (SMO [2]): induces SMO to accumulate in cilia but traps it in an inactive conformation | SMO colocalization with endogenous PKA-C in primary cilium (SMO [1]; NIH3T3, cyclopamine 5 μM, 8 hours): did not occur

Compound: SMO WRR: full-length SMO with WRR mutation (SADVSSAAAQHVTKMVAAAGAILPQDVSVTPVATPVPP)
colocalization with PKA-C in cilia (PKA-Cα [3]): dramatically reduced colocalization in cilia | GLI transcriptional response (GLI): almost completely devoid of activity | interaction with PKA-C (BRET) (PKA-Cα [4]): prevented interaction between SMO and PKA-C

binding to PKA-Cα (mouse PKA-Cα; mouse PKA-Cα, ATP and MgCl2 present): bound specifically to mouse PKA-Cα
Compound: SMO pCT: recombinant protein encompassing the entire 93 amino-acid SMO pCT, GST-tagged for SPR
ATP/MgCl2 dependence of PKA-C binding (mouse PKA-Cα; ATP and MgCl2 omitted, PKA-Cα […]): depended strictly on ATP and MgCl2

pIC50 [5]: 4.96
Compound: recombinant SMO pCT: residues 565–657 of mouse SMO, cleaved from MBP-His8-SUMO tags

Compound: wild-type SMO657: nanoluc-tagged truncated SMO construct
BRET with PKA-C (PKA-Cα [6]): strong, specific BRET

Compound: wild-type SMO: full-length wild-type SMO construct
muscle specification in smo−/− zebrafish (smo−/− zebrafish): restored correct muscle specification | GLI transcriptional response (GLI): strong GLI transcriptional responses to Hh ligands
